Here are results for five substances from patent publication US20180369342A1, “CARDIAC METABOLIC EFFECT OF LANTUS” (Sanofi-Aventis Deutschland GmbH, priority 2015, published 2018).

Entries after “also recorded” stand apart in the source; their conditions may differ.

One assay deals with C57bl/6 mouse hearts. Kind of assay: Isolated working heart perfusion, cardiac energy metabolism (acute treatment), C57bl/6. Conditions: for % ATP from glucose oxidation / % ATP from palmitate oxidation / cardiac efficiency: C57bl/6 mouse hearts; for glucose oxidation / palmitate oxidation: isolated working C57bl/6 mouse hearts, 10 wk old. How it is done:
(§1) The effect of three different types of insulin, human insulin, insulin degludec, and the M1 metabolite of insulin glargine, on cardiac metabolism was determined in adult, 10 weeks old mice using either healthy C57Bl6 wildtype mice or Type-2 diabetes db/db mice. Mice were fed a standard chow diet and kept in 12 hr light: 12 hr dark cycle. To test their acute effect energy metabolism, hearts were removed from fully anesthetized mice, and perfused as isolated working hearts with Krebs Henseleit buffer (118.5 mM NaCl, 1.2 mM MgSO4, 25 mM NaHCO3, 4.7 mM KCl, 1.2 mM KH2PO4, 2.5 mM CaCl2) supplemented with 0.8 mM palmitate bound to 3% fatty acid-free bovine serum albumin (BSA), 5 mM glucose, and 0.5 mM lactate. Hearts underwent aerobic perfusion for 72 min with vehicle or increasing amounts of insulin (0, 25, 50, 100 μU/ml), insulin Degludec (0, 100, 300, 1000 μU/ml), or the M1 metabolite of insulin Glargine (0, 25, 50, 100 μU/ml). Each concentration escalation step lasted 18 minutes. At the end of the heart perfusion hearts were immediately snap frozen in liquid N2 and stored at −80° C. See FIG. 1 In order to measure glucose oxidation, glycolysis, palmitate oxidation, and lactate oxidation [U-^14C] glucose, [5-^3H] glucose, [9, 10-^3H] palmitate, and [U-^14C] lactate, respectively, were added to the perfusate as described above in Example 1. Glycolysis and palmitate oxidation rates were determined based on the rates of ^3H2O production. To determine glucose oxidation and lactate oxidation rates ^14CO2 production was assessed.

A further assay relates to db/db mouse hearts. Kind of assay: Isolated working heart perfusion, cardiac energy metabolism (acute treatment), db/db. Conditions: for glucose oxidation / palmitate oxidation: isolated working db/db mouse hearts, 10 wk old. As to the method: as §1
The next assay concerns Akt. Kind of assay: Western Blot Analysis of cardiac Akt phosphorylation after acute treatment. Conditions: db/db mouse hearts. As to the method: The phosphorylation status of several enzymes involved in insulin signaling were also assessed in the C57bl/6 and db/db mouse hearts treated acutely with insulin, Degludec, or Lantus, via Western Blot Analysis. Frozen heart issue was homogenized for 30 sec in homogenization buffer (50 mM Tris HCl, 10% glycerol, 1 mM EDTA, 0.02% Brij-35, 1 mM DTT, and protease and phosphatase inhibitors (Sigma)). After sitting on ice at least 10 min, tissue homogenates were centrifuged at 10,000×g for 20 min. The supernatant was then stored at −80° C. Protein concentration of supernatant was determined using the Bradford protein assay. After running samples on SDS-polyacrylamide gel electrophoresis, protein was transferred onto nitrocellulose membrane. Primary antibodies included pAkt Ser473 (Cell Signaling 9271), Akt (Cell Signaling 9272), pGSK3α/β Ser21/9 (Cell Signaling 9331), GSK3β (Cell Signaling 9315), pPDH Ser293 (Calbiochem AP1062), and PDH (Cell Signaling 2784). Protein bands were visualized on autoradiography film using enhanced chemiluminescence (Perkin Elmer) and quantified with Image J.

Assay [1] deals with db/db mice. The assay can be described thus: Chronic treatment of db/db mice: blood glucose and glucose tolerance. Conditions: 18 week old db/db mice; for blood glucose levels: 5 U/kg BW daily, data not shown; for blood glucose tolerance: 150 U/kg BW daily for 4 weeks. Type of assay: in vivo, mouse. How it is done: (§2) In a second set 18 week old db/db mice were treated with vehicle, NPH insulin, Degludec, or Lantus daily for 4 weeks (see FIG. 8). 18 wk old db/db mice were specifically used because by this age they have a diastolic dysfunction. The original protocol involved treating the mice with either NPH insulin (5 U/kg BW), Degludec (5 U/kg BW), or Lantus (5 U/kg BW). […] Other groups have reported that a higher dose of insulin is required to control hyperglycemia in db/db mice. The highest dose that had been reported to be safe, was 150 U/kg BW, which was then used for future experiments. Treating the mice with 150 U/kg BW of NPH insulin, Degludec, or Lantus improved blood glucose tolerance much more dramatically (FIG. 9). At the end of the 4 week treatment period, the cardiac energy metabolism and function was assessed via echocardiography. The Vevo 770 high resolution echocardiography imaging system was used to assess in vivo cardiac function was assessed in isoflurane anesthetized mice.

Assay [2] deals with db/db mice. Kind of assay: Chronic treatment of db/db mice: in vivo cardiac function by echocardiography. The arrangement: species or system mouse. Conditions: chronic treatment 4 weeks. As to the method: The long-term effects of insulin treatment on cardiac function was assessed in two different settings. In acute treatments, measurements were performed in isolated working hearts from either wildtype mice (C57Bl) or mice with a diabetes type-2 phenotype (db/db mice). In a second chronic setting, db/db animals were treated for 4 weeks with daily administration of different high doses of insulins to achieve similar effects on systemic hypergycaemia. At the end of the chronic study, effects on cardiac function was assessed by echocardiography.
as §2

Turning to “Gly (A21), Arg (B31), Arg (B32) human insulin [Lantus]”, in the assay on C57bl/6 mouse hearts, the “% ATP from glucose oxidation” value turned out to be 30%, the “% ATP from palmitate oxidation” value is on record as 37%, the cardiac efficiency entry is “improves” and the glucose oxidation entry is reported as “stimulates”. Moreover, the palmitate oxidation result with C57bl/6 mouse hearts is listed as “decreases”. For the same substance, in the assay with db/db mouse hearts (db/db mouse hearts), the “% ATP from glucose oxidation” value is recorded as 14% and the “% ATP from palmitate oxidation” value is 56%. In the assay on db/db mouse hearts, the glucose oxidation entry was “stimulates” and the palmitate oxidation result is given as “decreases”. Further, the pAkt result in the assay on Akt is listed as “significantly increased”. Besides, in the assay on db/db mice [1], the blood glucose levels entry is reported as “did not reduce” and the blood glucose tolerance entry is “improved”. In the assay with db/db mice [2], the cardiac output entry was “significantly increased; also recorded: improved”, the cardiac stroke volume result is “significantly increased; also recorded: improved” and the “in vivo cardiac function” value is “improved”. Moreover, in the assay with db/db mice [2] (listed as lantus), the “in vivo cardiac function” value is recorded as “improves”.

As for “Gly (A21) human insulin [M1-metabolite of insulin glargine]”, the cardiac efficiency entry in the assay with C57bl/6 mouse hearts and in the assay on db/db mouse hearts (db/db mouse hearts) was “improved” in each case. The glucose oxidation result in the assay on C57bl/6 mouse hearts and in the assay on db/db mouse hearts was “able to stimulate” throughout. The palmitate oxidation entry in the assay with C57bl/6 mouse hearts and with db/db mouse hearts was “inhibit” throughout.

For Degludec, in the assay on C57bl/6 mouse hearts, the “% ATP from glucose oxidation” value turned out to be 12%, the “% ATP from palmitate oxidation” value is 62%, the glucose oxidation entry is “not” and the palmitate oxidation result is “not”. In addition, in the assay with db/db mouse hearts (db/db mouse hearts), the “% ATP from glucose oxidation” value is listed as 5% and the “% ATP from palmitate oxidation” value is 75%. Further, in the assay on db/db mouse hearts, the glucose oxidation result is recorded as “not” and the palmitate oxidation result was “not”. For the same substance, in the assay with db/db mice [1], the blood glucose levels result is recorded as “did not reduce” and the blood glucose tolerance result is listed as “improved”.

insulin: human insulin: in the assay with C57bl/6 mouse hearts, the “% ATP from glucose oxidation” value was found to be 18% and the “% ATP from palmitate oxidation” value was 55%. In the assay with db/db mouse hearts (db/db mouse hearts), the “% ATP from glucose oxidation” value is given as 13% and the “% ATP from palmitate oxidation” value was found to be 53%.

Consider NPH insulin: long acting basal insulin, for which, in the assay with db/db mice [1], the blood glucose levels result is recorded as “did not reduce” and the blood glucose tolerance entry is reported as “improved”.
